Assay results reported in publication PMC12867150, “A fungi-derived cyclic peptide enhances Th9-mediated antitumor immunity by targeting ZAP70 and SREBP1” (The Journal of Clinical Investigation, 2025).
Where “and” joins values, the source holds several entries; their conditions need not be identical. Identical values can stand only once.

Key:
Th1 cells = assay: Th1 polarization, IFN-γ by flow cytometry (Figure 1F); assay type: cell-based, mouse
Protocol: Naive CD4^+ T cells were isolated from the spleens of C57BL/6J or CD45.1^+ OT-II mice using the MojoSort Mouse CD4 Naive T Cell Isolation Kit (BioLegend, catalog 480040), following the manufacturer’s protocol. Purified cells were cultured in RPMI-1640 medium supplemented with 10% FBS, 1% penicillin-streptomycin, and 0.1% β-mercaptoethanol (Gibco, catalog 21985023).
T cell polarization was initiated under plate-bound anti-CD3 (2 μg/mL, clone 17A2, BioXCell, catalog BE0002) and soluble anti-CD28 (1 μg/mL, clone 37.51, BioXCell, catalog BE0015-1) stimulation, with the addition of cytokines and neutralizing antibodies specific to each subset. For Th9 cells, these included IL-4 (10 ng/mL, Peprotech, catalog 400-04), TGF-β (1 ng/mL, EPOTO Biotech, catalog HF-2021), anti–IL-12 (5 μg/mL, clone C17.8, BioXCell, catalog BE0051), and anti–IFN-γ (10 μg/mL, clone XMG1.2, BioXCell, catalog BE0055); for Th1 cells, these included IL-12 (10 ng/mL, GenScript, catalog Z03211-50) and anti–IL-4 (5 μg/mL, clone 11B11, BioXCell, catalog BE0045); for Th2 cells, these included IL-4 (50 ng/mL), anti–IFN-γ (20 μg /mL), anti–IL-12 (5 μg/mL), Th17 cells: IL-6 (20 ng/mL, EPOTO Biotech, catalog MF-1006), TGF-β (1 ng/mL), IL-1β (10 ng/mL, Peprotech, catalog AF-211-11B), anti–IFN-γ (10 μg/mL), anti–IL-12 (5 μg/mL), and anti–IL-4 (5 μg/mL); and for Tregs, these included TGF-β (3 ng/mL). […]

B16-OVA melanoma = assay: Adoptive transfer of OT-II Th9 cells, B16-OVA tumor growth in C57BL/6 mice (Figure 2A, 2H); assay type: in vivo; details: EpA-Th9 cells vs conventional Th9 cells; result in words
Excerpt: (A) Schematic of the therapeutic model. C57BL/6 mice were subcutaneously inoculated with B16-OVA melanoma cells (5 × 10^5) and preconditioned with cyclophosphamide (CTX) on day 4. […] (B–G) Flow-cytometric analysis of transferred CD45.1^+ OT-II Th9 cells (B and C) and endogenous CD4^+ (D and E) and CD8^+ T cells (F and G) in spleens and tumors, showing frequencies and absolute numbers (n = 4 mice per group). (H) Tumor growth curves in B16-OVA–bearing C57BL/6 or β2-microglobulin–deficient (β2m-KO) mice following transfer of control or EpA-treated OT-II Th9 cells (n = 4 mice per group). (I) C57BL/6 mice bearing B16-OVA tumors were treated with control or EpA-induced OT-II Th9 cells (2 × 10^6, i.v., day 5), followed by anti–PD-1 antibody (200 μg, i.p.) on day 7, and (100 μg, i.p.) on day 10 and 12. Tumor growth is shown with individual trajectories (n = 6 mice per group). Statistical analysis was performed using 2-tailed unpaired Student’s t test ([…], B–G) or 1-way ANOVA with Tukey’s post hoc test (H and I). All data are presented as the mean ± SEM. *P < 0.05, **P < 0.01, ***P < 0.001. Schematic in A created using BioRender (https://Biorender.com).
C57BL/6 mice were subcutaneously injected with 5 × 10^5 B16-OVA melanoma cells. […]

anteiso-C15 Leu7 surfactin [EpA]
IFN-γ expression under Th1 polarization (Th1 cells; EpA 10 μM, individual replicates, n = 4): 80 and 84.2 and 74.8 and 80.3 | effect on Th1 polarization (Th1 cells; result in words): did not affect | tumor control (B16-OVA melanoma): significantly improved tumor control
